Source: publication PMC11285368, “Chasing Red Herrings: Palladium Metal Salt Impurities Feigning KRAS Activity in Biochemical Assays” (Journal of Medicinal Chemistry, 2024)
Read-outs that look alike come from different tables or passages of the source.

Biological target: T1, KRAS^G12D(GTP)::CRAF (Homo sapiens, UniProt P01116, G12D)
T1 construct: KRAS^G12D 1–169, N-terminal 6His-tag, C-terminal avi-tag (Xtal BioStructures, Inc.); 6His (N); purchased Xtal BioStructures, Inc. (KRAS); Viva Biotech Ltd. (CRAF)
T1 sequence (P01116 1-169 isoform P01116-2 G12D): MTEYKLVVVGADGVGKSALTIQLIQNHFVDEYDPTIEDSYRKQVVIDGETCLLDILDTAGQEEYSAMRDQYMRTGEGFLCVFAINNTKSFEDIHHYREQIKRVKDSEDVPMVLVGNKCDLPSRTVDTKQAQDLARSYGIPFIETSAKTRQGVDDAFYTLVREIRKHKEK
Assay: KRAS^G12D(GTP)::CRAF AlphaScreen
Format: biochemical
Protocol: The proteins have been used at these given final assay concentrations:
Test compounds dissolved in DMSO were dispensed onto assay plates (Proxiplate 384 PLUS, white, PerkinElmer; 6008289) using an Access Labcyte Workstation with the Labcyte Echo 555. For the chosen highest assay concentration of 100 μM, 150 nl of compound solution were transferred from a 10 mM DMSO compound stock solution. A series of 11 5-fold dilutions per compound was transferred to the assay plate, and compound dilutions were tested in duplicates. DMSO was added as backfill to a total volume of 150 nl. The assay was run on a fully automated robotic system in a darkened room below 100 Lux. […] After 60 min incubation time 5 μL of AlphaScreen bead mix in assay buffer were added into columns 1–23. Bead mix consisted of AlphaLISA Glutathione Acceptor Beads (PerkinElmer, cat. no. AL109) and Alpha-Screen Streptavidin Donor Beads (perkinElmer cat. no. 6760002) in assay buffer at a final assay concentration of 10 μg/mL each. Plates were kept at room temperature in a darkened incubator. After an additional 60 min incubation time the signal was measured on a PerkinElmer Envision HTS Multilabel Reader using the AlphaScreen specs from PerkinElmer.
IC50 values were calculated and analyzed with Boehringer Ingelheim’s MEGALAB IC50 application using a 4 parametric logistic model.

SMILES: [Cl][Pd][Cl] [PdCl2, Palladium(II) chloride]
- IC50 (Batch 1, read-out: KRAS^G12D(GTP)::CRAF AlphaScreen IC50): 700 ± 200 nM
- IC50 (Luminescence, GST-CRAF^(1–303) and KRAS^G12D(1–169)-biotin, read-out: IC50, KRAS^G12D(GTP)::CRAF AlphaScreen): 700 ± 200 nM
